According to PubChem BioAssay (NCI):
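Values below derive from 48-hour exposures of cells grown in 96-well plates, with endpoints linearly interpolated between the two concentrations bracketing the appropriate inhibition level. At the GI50, growth is halved. At the TGI there is no net growth.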

Legend:
Assay in all cases: NCI tumour cell line growth inhibition, 48 h
[1] = system: HCT-15 colon
[2] = system: PC-3 prostate
[3] = system: EKVX NSCLC
[4] = system: OVCAR-5 ovarian
[5] = system: OVCAR-4 ovarian
[6] = system: 786-0 renal
[7] = system: KM12 colon
[8] = system: CAKI-1 renal
[9] = system: A549 NSCLC
[10] = system: MDA-MB-231 breast

## Nc1n[nH]c2ccc([C@@H]3Nc4cc5[nH]ncc5cc4[C@H]4C5CCC(C5)[C@@H]34)cc12 (stereo not given in full)
[1]
  GI50: 431 nM
  TGI: > 100000 nM
[2]
  GI50: 365 nM
  TGI: > 41900 nM
[3]
  GI50: 485 nM
  TGI: > 100000 nM
[4]
  GI50: 565 nM
  TGI: > 80900 nM
[5]
  GI50: 9300 nM
  TGI: > 100000 nM
[6]
  GI50: 709 nM
  TGI: > 66700 nM
[7]
  GI50: 393 nM
  TGI: 19100 nM
[8]
  GI50: 355 nM
  TGI: > 39200 nM
[9]
  GI50: 584 nM
  TGI: > 100000 nM
[10]
  GI50: 764 nM
  TGI: 98100 nM
